Read-outs that look alike come from different tables or passages of the source.
What was measured:
Assay in all cases: MIC of compounds alone and combined with antibacterials, broth microdilution (CLSI)
Type in all cases: cell-based
[1] = system: Citrobacter freundii (CFR) isolates; conditions: Citrobacter freundii
Outline: (§1)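 Antibacterial MICs in combination were determined at every compound concentration tested, alongside compound MICs alone. Bacteria grew in cation-adjusted Mueller-Hinton broth starting from 5.10^5 CFU/mL, incubated at 35° C for 16-20 h, and endpoints were the lowest concentrations with no visible growth.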

[2] = system: Citrobacter koseri (CKR) isolates; conditions: Citrobacter koseri, alone, read-out: MIC
Outline: as §1

[3] = system: Enterobacter aerogenes (EAE) isolates; conditions: Klebsiella aerogenes, alone, read-out: MIC
Outline: as §1

[4] = system: Escherichia coli (ECO) isolates; conditions: Escherichia coli, read-out: MIC
Outline: as §1

[5] = system: Klebsiella oxytoca (KOX) isolates; conditions: Klebsiella oxytoca, alone, read-out: MIC
Outline: as §1

[6] = system: Serratia marcescens (SMA) isolates; conditions: Serratia marcescens, read-out: MIC
Outline: as §1

Q: Which MIC ([1]; CFR UFR10, alone) does the source give for `O=C1N2CC(c3ncco3)=CC(C2)N1OC(F)(F)C(=O)[O-].[Li+]` (stereo not drawn) [AF2] here?
A: 4 µg/mL

Q: What about the MIC ([1]; CFR UFR11, alone) of the same compound?
A: > 32 µg/mL

Q: What about the MIC ([1]; CFR UFR37, alone) of the same compound?
A: 4 µg/mL

Q: And the MIC ([1]; CFR UFR83, alone)?
A: > 32 µg/mL

Q: What about the MIC ([1]; CFR UFR146, alone) of the same compound?
A: 32 µg/mL

Q: What about the MIC ([1]; CFR UFR248, alone) of the same compound?
A: 8 µg/mL

Q: What about the MIC ([1]; strain CFR UFR147, compound alone) of the same compound?
A: 8 µg/mL

Q: And the MIC ([1]; strain CFR UFR148, compound alone)?
A: 8 µg/mL

Q: What about the MIC ([1]; strain CFR UFR251, compound alone, read-out: MIC) of the same compound?
A: 16 µg/mL

Q: What about the MIC ([1]; strain CFR UFR254, compound alone) of the same compound?
A: 4 µg/mL

Q: What about the MIC ([2]; CKO ROU) of the same compound?
A: 16 µg/mL

Q: What about the MIC ([2]; CKO UFR149) of the same compound?
A: 16 µg/mL

Q: And the MIC ([2]; CKO UFR150)?
A: > 32 µg/mL

Q: And the MIC ([3]; EAE 49469)?
A: 8 µg/mL

Q: And the MIC ([3]; EAE 200261)?
A: 16 µg/mL

Q: What about the MIC ([3]; EAE UFR199) of the same compound?
A: 16 µg/mL

Q: And the MIC ([3]; EAE UFR201)?
A: 4 µg/mL

Q: And the MIC ([3]; EAE UFR202)?
A: 32 µg/mL

Q: And the MIC ([3]; EAE UFR207)?
A: 4 µg/mL

Q: What about the MIC ([3]; EAE UFR213) of the same compound?
A: 16 µg/mL

Q: What about the MIC ([4]; ECO 4133, alone) of the same compound?
A: 8 µg/mL

Q: And the MIC ([4]; ECO 5302, alone)?
A: 4 µg/mL

Q: What about the MIC ([4]; ECO 131119, alone) of the same compound?
A: 4 µg/mL

Q: And the MIC ([4]; ECO 180070, alone)?
A: 8 µg/mL

Q: What about the MIC ([4]; ECO 190314, alone) of the same compound?
A: 8 µg/mL

Q: What about the MIC ([4]; ECO 190317, alone) of the same compound?
A: 4 µg/mL

Q: What about the MIC ([4]; ECO 190457, alone) of the same compound?
A: 4 µg/mL

Q: What about the MIC ([4]; ECO 190549, alone) of the same compound?
A: 4 µg/mL

Q: And the MIC ([4]; ECO 200159, alone)?
A: 4 µg/mL

Q: And the MIC ([4]; ECO 200259, alone)?
A: 4 µg/mL

Q: And the MIC ([4]; ECO 200344, alone)?
A: 8 µg/mL

Q: What about the MIC ([4]; ECO 260096, alone) of the same compound?
A: 16 µg/mL

Q: What about the MIC ([4]; ECO 260304, alone) of the same compound?
A: 4 µg/mL

Q: What about the MIC ([4]; ECO 260508, alone) of the same compound?
A: 8 µg/mL

Q: And the MIC ([4]; ECO (strain number on grid row 356, not shown), alone)?
A: 8 µg/mL

Q: And the MIC ([4]; ECO UFR17, alone)?
A: 16 µg/mL

Q: And the MIC ([4]; ECO UFR18, alone)?
A: 8 µg/mL

Q: What about the MIC ([4]; ECO UFR19, alone) of the same compound?
A: 8 µg/mL

Q: What about the MIC ([4]; ECO UFR32, alone) of the same compound?
A: 8 µg/mL

Q: What about the MIC ([4]; ECO UFR39, alone) of the same compound?
A: 8 µg/mL

Q: What about the MIC ([4]; ECO UFR41, alone) of the same compound?
A: 8 µg/mL

Q: What about the MIC ([4]; ECO UFR45, alone) of the same compound?
A: 4 µg/mL

Q: And the MIC ([4]; ECO UFR52, alone)?
A: 32 µg/mL

Q: What about the MIC ([4]; ECO UFR61O, alone) of the same compound?
A: 8 µg/mL

Q: And the MIC ([4]; ECO UFR62, alone)?
A: 8 µg/mL

Q: And the MIC ([4]; ECO UFR74, alone)?
A: 8 µg/mL

Q: And the MIC ([4]; ECO UFR86, alone)?
A: 16 µg/mL

Q: What about the MIC ([4]; ECO UFR174, alone) of the same compound?
A: 2 µg/mL

Q: And the MIC ([4]; ECO UFR176, alone)?
A: 8 µg/mL

Q: What about the MIC ([4]; ECO UFR184, alone) of the same compound?
A: 4 µg/mL

Q: What about the MIC ([4]; ECO UFR208, alone) of the same compound?
A: 16 µg/mL

Q: What about the MIC ([4]; ECO UFR209, alone) of the same compound?
A: 8 µg/mL

Q: And the MIC ([4]; ECO UFR210, alone)?
A: 4 µg/mL

Q: What about the MIC ([4]; ECO UFR211, alone) of the same compound?
A: 4 µg/mL

Q: What about the MIC ([4]; ECO UFR212, alone) of the same compound?
A: 4 µg/mL

Q: What about the MIC ([4]; ECO URF20, alone) of the same compound?
A: 4 µg/mL

Q: And the MIC ([4]; strain ECO UFR177, compound alone)?
A: 4 µg/mL

Q: What about the MIC ([4]; strain ECO UFR178, compound alone) of the same compound?
A: 8 µg/mL

Q: And the MIC ([4]; strain ECO UFR179, compound alone)?
A: 4 µg/mL

Q: What about the MIC ([4]; strain ECO UFR180, compound alone) of the same compound?
A: 4 µg/mL

Q: What about the MIC ([4]; strain ECO UFR181, compound alone) of the same compound?
A: 16 µg/mL

Q: And the MIC ([4]; strain ECO UFR182, compound alone)?
A: 8 µg/mL

Q: What about the MIC ([4]; strain ECO UFR183, compound alone) of the same compound?
A: 32 µg/mL

Q: And the MIC ([4]; strain ECO UFR186, compound alone)?
A: 8 µg/mL

Q: What about the MIC ([4]; strain ECO UFR187, compound alone) of the same compound?
A: 16 µg/mL

Q: And the MIC ([4]; strain ECO UFR189, compound alone)?
A: 4 µg/mL

Q: What about the MIC ([4]; strain ECO UFR190, compound alone) of the same compound?
A: 8 µg/mL

Q: What about the MIC ([4]; strain ECO UFR191, compound alone) of the same compound?
A: 8 µg/mL

Q: What about the MIC ([4]; strain ECO UFR204, compound alone) of the same compound?
A: 8 µg/mL

Q: What about the MIC ([4]; strain ECO UFR205, compound alone) of the same compound?
A: 8 µg/mL

Q: What about the MIC ([4]; strain ECO UFR206, compound alone) of the same compound?
A: 16 µg/mL

Q: What about the MIC ([4]; strain ECO UFR252GO, compound alone) of the same compound?
A: 8 µg/mL

Q: And the MIC ([4]; strain ECO UFR255, compound alone)?
A: 4 µg/mL

Q: And the MIC ([5]; KOX UFR21)?
A: 16 µg/mL

Q: And the MIC ([5]; KOX UFR173)?
A: 16 µg/mL

Q: What about the MIC ([5]; KOX UFR223) of the same compound?
A: 8 µg/mL

Q: And the MIC ([5]; KOX UFR224)?
A: 8 µg/mL

Q: And the MIC ([6]; SMA UFR30, alone)?
A: 16 µg/mL

Q: What about the MIC ([6]; SMA UFR134, alone) of the same compound?
A: 16 µg/mL

Q: And the MIC ([6]; SMA UFR135, alone)?
A: > 32 µg/mL

Q: And the MIC ([6]; SMA UFR136, alone)?
A: > 32 µg/mL

Q: What about the MIC ([6]; SMA UFR137, alone) of the same compound?
A: 16 µg/mL

Q: And the MIC ([6]; SMA UFR138, alone)?
A: 16 µg/mL

Q: What about the MIC ([6]; SMA UFR139, alone) of the same compound?
A: > 32 µg/mL

Q: And the MIC ([6]; SMA UFR141, alone)?
A: > 32 µg/mL

Q: And the MIC ([6]; SMA UFR142, alone)?
A: 32 µg/mL

Q: And the MIC ([6]; SMA UFR143, alone)?
A: 32 µg/mL

Q: What about the MIC ([6]; SMA UFR239, alone) of the same compound?
A: 32 µg/mL

Q: What about the MIC ([6]; strain SMA UFR140, compound alone) of the same compound?
A: > 32 µg/mL

Q: And the MIC ([6]; strain SMA UFR238, compound alone)?
A: 16 µg/mL
